Literature values, collected in patent US20100120727A1, “Eflornithine Prodrugs, Conjugates and Salts, and Methods of Use Thereof” (Kyphia Pharmaceuticals, Inc., priority 2008, published 2010).
Read-outs that look alike come from different tables or passages of the source. One block for each compound: values may come before it.

Key:
[1] = not given; remark: listed apart in the source
[2] = not given; remark: listed apart in the source
[3] = system: COX
[4] = system: tumor putrescine levels; conditions: DFMO infusion
[5] = system: MCA sarcoma; conditions: in vivo

Structure (SMILES): CC(=O)Oc1ccccc1C(=O)O [Aspirin, acetylsalicylic acid]
solubility in water [2]: very low solubility in water

Structure (SMILES): CC1=C(CC(=O)O)c2cc(F)ccc2/C1=C\c1ccc(S(C)(=O)=O)cc1 [Sulindac sulfone]
COX-inhibitory activity [3]: lacks COX-inhibitory activity

Structure (SMILES): NCCCC(N)(C(=O)O)C(F)F (racemic) [DFMO, 2-(Difluoromethyl)-DL-ornithine]
decrease in tumor putrescine levels [4]: 90%
tumor growth rate and regression [5]: reduces the growth rate of an MCA sarcoma but does not produce tumor regression

More lines, now with the values ahead:

mean half-life (in vivo): 16.4 h
Structure (SMILES): CSc1ccc(/C=C2/C(C)=C(CC(=O)O)c3cc(F)ccc32)cc1 [sulfide metabolite]

mild gastrointestinal effects, share of patients ([1]; abdominal pain and nausea most frequent): ~20%
skin rash and pruritus, share of patients ([1]; human, in vivo): 5%
time to peak plasma levels (administered with food): 3 to 4 h
fraction of the drug absorbed (after oral administration): about 90%
time to peak plasma levels (fasting patients): about 2 hours
Structure (SMILES): CC1=C(CC(=O)O)c2cc(F)ccc2/C1=C\c1ccc([S+](C)[O-])cc1 (stereo not shown) [Sulindac, (Z)-5-Fluoro-2-methyl-1-((4 (methylsulfinyl)phenyl)methylene)1H-indene-3-acetic acid]
